These results are taken from ChEMBL document CHEMBL1121473, “Conformationally defined aromatic amino acids. Synthesis and stereochemistry of 2-endo- and 2-exo-amino-1,2,3,4-tetrahydro-1,4-ethanonaphthalene-2-carboxylic acids (2-endo- and 2-exo-aminobenzobicycle[2.2.2]octene-2-carboxylic acids)” (J Med Chem, 1980).

The test system of experiment [1] is Enterococcus faecalis. Briefly: ability to inhibit the decarboxylation of L-phenyl-alanine using a crude enzyme preparation of phenylalanine decarboxylase (PAD) from Streptococcus faecalis, at 1.76 mM concentration.
Experiment [2] has as its system Enterococcus faecalis. The experiment in a line: ability to inhibit the decarboxylation of L-phenyl-alanine using a crude enzyme preparation of phenylalanine decarboxylase (PAD) from Streptococcus faecalis, at 1 mM concentration.
Experiment [3] has as its system Enterococcus faecalis. Briefly: Ability to inhibit the decarboxylation of L-phenyl-alanine using a crude enzyme preparation of phenylalanine decarboxylase (PAD) from Streptococcus faecalis at 1.76 mM concentration.
The subject of experiment [4] is Enterococcus faecalis. The experiment in a line: Ability to inhibit the decarboxylation of L-phenyl-alanine using a crude enzyme preparation of phenylalanine decarboxylase (PAD) from Streptococcus faecalis, at 1.76 mM concentration.

For `C[C@](N)(Cc1ccc(O)c(O)c1)C(=O)O` (racemic), the inhibition in experiment [1] was 8%.

Regarding `N[C@@H](Cc1ccc(Cl)cc1)C(=O)O` (racemic), the inhibition in experiment [2] came to 24%.

For the compound `NC1(C(=O)O)CC2CC[C@@H]1c1ccccc12` (stereo in doubt; 1a), the inhibition in experiment [3] turned out to be 7%.

With `NC1(C(=O)O)CC2CC[C@@H]1c1ccccc12` (stereo in doubt; 1b), the inhibition in experiment [4] was determined as 8%.
